Measurements as given in PubChem BioAssay (NCI).
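How tested: cells in 96-well plates exposed to compound for 48 hours at five concentrations. Here, GI50 denotes the concentration required for 50% inhibition of growth. TGI is the concentration that stops growth completely.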

How the values were obtained:
Assay in all cases: NCI anticancer screen, dose series, 48 h
786-0 renal = system: 786-0 renal
A498 renal = system: A498 renal
A549 NSCLC = system: A549 NSCLC
ACHN renal = system: ACHN renal
BT-549 breast = system: BT-549 breast
CAKI-1 renal = system: CAKI-1 renal
CCRF-CEM leukemia = system: CCRF-CEM leukemia
COLO 205 colon = system: COLO 205 colon
DU-145 prostate = system: DU-145 prostate
EKVX NSCLC = system: EKVX NSCLC
HCC-2998 colon = system: HCC-2998 colon
HCT-116 colon = system: HCT-116 colon
HCT-15 colon = system: HCT-15 colon
HL-60(TB) leukemia = system: HL-60(TB) leukemia
HOP-62 NSCLC = system: HOP-62 NSCLC
HOP-92 NSCLC = system: HOP-92 NSCLC
HS 578T breast = system: HS 578T breast
HT29 colon = system: HT29 colon
IGROV1 ovarian = system: IGROV1 ovarian
K-562 leukemia = system: K-562 leukemia
KM12 colon = system: KM12 colon
LOX IMVI melanoma = system: LOX IMVI melanoma
M14 melanoma = system: M14 melanoma
MALME-3M melanoma = system: MALME-3M melanoma
MCF7 breast = system: MCF7 breast
MDA-MB-231 breast = system: MDA-MB-231 breast
MDA-MB-435 = system: MDA-MB-435
MDA-MB-468 breast = system: MDA-MB-468 breast
MOLT-4 leukemia = system: MOLT-4 leukemia
NCI-H226 lung = system: NCI-H226 lung
NCI-H23 lung = system: NCI-H23 lung
NCI-H460 lung = system: NCI-H460 lung
NCI-H522 lung = system: NCI-H522 lung
NCI/ADR-RES ovarian = system: NCI/ADR-RES ovarian
OVCAR-3 ovarian = system: OVCAR-3 ovarian
OVCAR-4 ovarian = system: OVCAR-4 ovarian
OVCAR-5 ovarian = system: OVCAR-5 ovarian
OVCAR-8 ovarian = system: OVCAR-8 ovarian
PC-3 prostate = system: PC-3 prostate
RPMI-8226 leukemia = system: RPMI-8226 leukemia
RXF 393 renal = system: RXF 393 renal
SF-268 CNS = system: SF-268 CNS
SF-295 CNS = system: SF-295 CNS
SF-539 CNS = system: SF-539 CNS
SK-MEL-2 melanoma = system: SK-MEL-2 melanoma
SK-MEL-28 melanoma = system: SK-MEL-28 melanoma
SK-MEL-5 melanoma = system: SK-MEL-5 melanoma
SK-OV-3 ovarian = system: SK-OV-3 ovarian
SN12C renal = system: SN12C renal
SNB-19 CNS = system: SNB-19 CNS
SNB-75 CNS = system: SNB-75 CNS
SR leukemia = system: SR leukemia
SW-620 colon = system: SW-620 colon
T-47D breast = system: T-47D breast
TK-10 renal = system: TK-10 renal
U251 CNS = system: U251 CNS
UACC-257 melanoma = system: UACC-257 melanoma
UACC-62 melanoma = system: UACC-62 melanoma
UO-31 renal = system: UO-31 renal

O=C1c2c(c3c4cc(F)ccc4oc3c3[nH]c4ccc(Br)cc4c23)C(=O)N1O
GI50 (786-0 renal): 3.84 µM | TGI (786-0 renal): > 50.6 µM | GI50 (A498 renal): 26.6 µM | TGI (A498 renal): 70.9 µM | GI50 (A549 NSCLC): > 52.1 µM | TGI (A549 NSCLC): > 100 µM | GI50 (ACHN renal): 0.372 µM | TGI (ACHN renal): 13.3 µM | GI50 (BT-549 breast): 1.84 µM | TGI (BT-549 breast): > 100 µM | GI50 (CAKI-1 renal): 1.34 µM | TGI (CAKI-1 renal): > 100 µM | GI50 (CCRF-CEM leukemia): 0.193 µM | TGI (CCRF-CEM leukemia): > 100 µM | GI50 (COLO 205 colon): > 33 µM | TGI (COLO 205 colon): > 100 µM | GI50 (DU-145 prostate): 0.735 µM | TGI (DU-145 prostate): > 100 µM | GI50 (EKVX NSCLC): 25.8 µM | TGI (EKVX NSCLC): > 100 µM | GI50 (HCC-2998 colon): 11.5 µM | TGI (HCC-2998 colon): > 100 µM | GI50 (HCT-116 colon): 2.09 µM | TGI (HCT-116 colon): > 100 µM | GI50 (HCT-15 colon): 3.57 µM | TGI (HCT-15 colon): > 100 µM | GI50 (HL-60(TB) leukemia): 6.07 µM | TGI (HL-60(TB) leukemia): > 100 µM | GI50 (HOP-62 NSCLC): 0.833 µM | TGI (HOP-62 NSCLC): > 57.8 µM | GI50 (HOP-92 NSCLC): 2.35 µM | TGI (HOP-92 NSCLC): 13.2 µM | GI50 (HS 578T breast): 2.42 µM | TGI (HS 578T breast): > 34.9 µM | GI50 (HT29 colon): 6.86 µM | TGI (HT29 colon): > 100 µM | GI50 (IGROV1 ovarian): 1.05 µM | TGI (IGROV1 ovarian): > 100 µM | TGI (K-562 leukemia): > 100 µM | GI50 (KM12 colon): 5.89 µM | TGI (KM12 colon): > 100 µM | GI50 (LOX IMVI melanoma): 0.227 µM | TGI (LOX IMVI melanoma): 1.4 µM | GI50 (M14 melanoma): 0.542 µM | TGI (M14 melanoma): > 100 µM | GI50 (MALME-3M melanoma): 2.5 µM | TGI (MALME-3M melanoma): 16.1 µM | GI50 (MCF7 breast): 0.488 µM | TGI (MCF7 breast): > 100 µM | GI50 (MDA-MB-231 breast): 4.99 µM | TGI (MDA-MB-231 breast): 64.3 µM | GI50 (MDA-MB-435): 4.91 µM | TGI (MDA-MB-435): > 100 µM | GI50 (MDA-MB-468 breast): 3.45 µM | TGI (MDA-MB-468 breast): 23 µM | GI50 (MOLT-4 leukemia): 0.505 µM | TGI (MOLT-4 leukemia): > 100 µM | GI50 (NCI-H226 lung): 8.35 µM | TGI (NCI-H226 lung): > 100 µM | GI50 (NCI-H23 lung): 0.471 µM | TGI (NCI-H23 lung): 11.7 µM | GI50 (NCI-H460 lung): 0.393 µM | TGI (NCI-H460 lung): > 100 µM | GI50 (NCI-H522 lung): 0.286 µM | TGI (NCI-H522 lung): 5.82 µM | GI50 (NCI/ADR-RES ovarian): 0.578 µM | TGI (NCI/ADR-RES ovarian): > 100 µM | GI50 (OVCAR-3 ovarian): 45 µM | TGI (OVCAR-3 ovarian): > 100 µM | GI50 (OVCAR-4 ovarian): > 100 µM | TGI (OVCAR-4 ovarian): > 100 µM | GI50 (OVCAR-5 ovarian): > 100 µM | TGI (OVCAR-5 ovarian): > 100 µM | GI50 (OVCAR-8 ovarian): 1.47 µM | TGI (OVCAR-8 ovarian): > 100 µM | GI50 (PC-3 prostate): 0.926 µM | TGI (PC-3 prostate): > 100 µM | GI50 (RPMI-8226 leukemia): 1.86 µM | TGI (RPMI-8226 leukemia): > 100 µM | GI50 (RXF 393 renal): 3.76 µM | TGI (RXF 393 renal): 32.8 µM | GI50 (SF-268 CNS): 0.844 µM | TGI (SF-268 CNS): > 100 µM | GI50 (SF-295 CNS): 1.24 µM | TGI (SF-295 CNS): > 46.4 µM | GI50 (SF-539 CNS): 0.381 µM | TGI (SF-539 CNS): 4.34 µM | GI50 (SK-MEL-2 melanoma): 18.6 µM | TGI (SK-MEL-2 melanoma): 45.4 µM | GI50 (SK-MEL-28 melanoma): 5.84 µM | TGI (SK-MEL-28 melanoma): > 100 µM | GI50 (SK-MEL-5 melanoma): 1.42 µM | TGI (SK-MEL-5 melanoma): 15 µM | GI50 (SK-OV-3 ovarian): 3.72 µM | TGI (SK-OV-3 ovarian): 37.6 µM | GI50 (SN12C renal): 0.473 µM | TGI (SN12C renal): > 100 µM | GI50 (SNB-19 CNS): 0.678 µM | TGI (SNB-19 CNS): > 79.9 µM | GI50 (SNB-75 CNS): 0.656 µM | TGI (SNB-75 CNS): 8.39 µM | GI50 (SR leukemia): 0.131 µM | TGI (SR leukemia): > 100 µM | GI50 (SW-620 colon): 0.477 µM | TGI (SW-620 colon): > 100 µM | GI50 (T-47D breast): 3.22 µM | TGI (T-47D breast): > 100 µM | GI50 (TK-10 renal): 24.9 µM | TGI (TK-10 renal): 72.5 µM | GI50 (U251 CNS): 0.641 µM | TGI (U251 CNS): > 100 µM | GI50 (UACC-257 melanoma): > 100 µM | TGI (UACC-257 melanoma): > 100 µM | GI50 (UACC-62 melanoma): 0.799 µM | TGI (UACC-62 melanoma): 14.6 µM | GI50 (UO-31 renal): 0.439 µM | TGI (UO-31 renal): > 100 µM
